Laboratory results as given in patent publication US11111251B2, “Positive allosteric modulators of the muscarinic acetylcholine receptor M1” (Vanderbilt University, priority 2016, dated 2021).

Target: T1, human mAChR M1 (Homo sapiens, UniProt P11229)
T1 sequence (P11229 1-460): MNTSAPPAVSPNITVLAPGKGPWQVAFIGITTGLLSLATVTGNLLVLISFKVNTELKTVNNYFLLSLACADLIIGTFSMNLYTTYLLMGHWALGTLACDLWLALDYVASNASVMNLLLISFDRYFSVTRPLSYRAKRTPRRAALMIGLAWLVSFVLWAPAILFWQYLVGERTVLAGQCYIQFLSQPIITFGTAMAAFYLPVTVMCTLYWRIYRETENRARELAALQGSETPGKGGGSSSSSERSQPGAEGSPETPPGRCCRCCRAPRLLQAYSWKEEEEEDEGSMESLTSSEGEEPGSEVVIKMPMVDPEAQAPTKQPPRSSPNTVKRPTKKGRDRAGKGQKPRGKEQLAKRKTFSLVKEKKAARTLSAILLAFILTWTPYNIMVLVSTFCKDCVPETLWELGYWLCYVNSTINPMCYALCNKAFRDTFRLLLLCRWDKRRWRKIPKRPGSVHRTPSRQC
Experiment: mAChR M1 cell-based functional assay: calcium mobilization, positive allosteric modulator mode (increase in EC20 acetylcholine response)
Conditions: Table 2, human M1; for EC50: read-out: Human M1 EC50; for Emax: read-out: Human M1 Emax (%)
How it was run: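 PAM potency reflects the concentration-dependent increase in calcium response to an EC20 acetylcholine challenge, given 144 s into a 300 s read after compound addition at 4 s (EC80 follows at 230 s). Cells were hM1-expressing CHO-K1, loaded 50 min with Fluo-4 AM. Curves used 11 points at 1:3 dilutions and four-parameter logistic fitting.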

SMILES | EC50 [µM] | Emax [%]
Cc1csc2c(Cc3ccc(-n4cccn4)cc3)cc(C(=O)N[C@@H]3CCCC[C@H]3O)nc12 [Compound 116, N-[(1R,2R)-2-hydroxycyclohexyl]-3-methyl-7-[(4-pyrazol-1-ylphenyl)methyl]thieno[3,2-b]pyridine-5-carboxamide] | 0.32 | 78.7
Cc1csc2c(Cc3ccc(-n4cccn4)cc3)cc(C(=O)N[C@@H]3CCOC[C@H]3O)nc12 [Compound 117, N-[(3S,4R)-3-hydroxytetrahydropyran-4-yl]-3-methyl-7-[(4-pyrazol-1-ylphenyl)methyl]thieno[3,2-b]pyridine-5-carboxamide] | 0.0833 | 76.6
Cc1csc2c(Cc3ccc(-n4cccn4)cc3)cc(C(=O)N[C@@H]3COCC[C@H]3O)nc12 [Compound 118] | 0.134 | 83.7
CO[C@@H]1CCCC[C@H]1NC(=O)c1cc(Cc2ccc(-n3cccn3)cc2)c2scc(C)c2n1 [Compound 119, N-[(1R,2R)-2-methoxycyclohexyl]-3-methyl-7-[(4-pyrazol-1-ylphenyl)methyl]thieno[3,2-b]pyridine-5-carboxamide] | 2.28 | 83.3
Cc1csc2c(Cc3ccc(-n4cccn4)cc3)cc(C(=O)N[C@@H]3CCCCC[C@H]3O)nc12 [Compound 120, N-[(1R,2R)-2-hydroxycycloheptyl]-3-methyl-7-[(4-pyrazol-1-ylphenyl)methyl]thieno[3,2-b]pyridine-5-carboxamide] | 1.32 | 75.3
Cc1csc2c(Cc3ccc(-n4cccn4)cc3)cc(C(=O)N(C)C3CCOCC3)nc12 [Compound 121, N,3-dimethyl-7-[(4-pyrazol-1-ylphenyl)methyl]-N-tetrahydropyran-4-yl-thieno[3,2-b]pyridine-5-carboxamide] | 6.76 | 54.9
Cc1csc2c(Cc3ccc(-n4cccn4)cc3)cc(C(=O)NC3CCCNC3=O)nc12 (centres unmarked) [Compound 122, 3-methyl-N-(2-oxo-3-piperidyl)-7-[(4-pyrazol-1-ylphenyl)methyl]thieno[3,2-b]pyridine-5-carboxamide] | 0.869 | 80.4
Cc1csc2c(Cc3ccc(-n4cccn4)cc3)cc(C(=O)NC3CCCCNC3=O)nc12 (centres unmarked) [Compound 123, 3-methyl-N-(2-oxoazepan-3-yl)-7-[(4-pyrazol-1-ylphenyl)methyl]thieno[3,2-b]pyridine-5-carboxamide] | 0.435 | 28.8
Cc1csc2c(Cc3ccc(-n4cccn4)cc3)cc(C(=O)NC3CCN(C)CC3)nc12 [Compound 124, 3-methyl-N-(1-methyl-4-piperidyl)-7-[(4-pyrazol-1-ylphenyl)methyl]thieno[3,2-b]pyridine-5-carboxamide] | 2.46 | 64.4
Cc1ncc(Cc2cc(C(=O)N[C@@H]3CCC[C@H]3O)nc3ccsc23)cn1 [Compound 125] | > 10 | 59.1
Cc1ncc(Cc2cc(C(=O)NC3CCOCC3)nc3ccsc23)cn1 [Compound 126, 7-[(2-methylpyrimidin-5-yl)methyl]-N-tetrahydropyran-4-yl-thieno[3,2-b]pyridine-5-carboxamide] | > 10 | 27.4
Cc1ncc(Cc2cc(C(=O)N[C@@H]3CCCC[C@H]3O)nc3ccsc23)cn1 [Compound 127, N-[(1R,2R)-2-hydroxycyclohexyl]-7-[(2-methylpyrimidin-5-yl)methyl]thieno[3,2-b]pyridine-5-carboxamide] | > 10 | 79.2
Cc1ncc(Cc2cc(C(=O)N[C@@H]3CCOC[C@H]3O)nc3ccsc23)cn1 [Compound 128, N-[(3S,4R)-3-hydroxytetrahydropyran-4-yl]-7-[(2-methylpyrimidin-5-yl)methyl]thieno[3,2-b]pyridine-5-carboxamide] | > 10 | 75
Cc1ncc(Cc2cc(C(=O)N[C@@H]3COCC[C@H]3O)nc3ccsc23)cn1 [Compound 129, N-[(3R,4R)-4-hydroxytetrahydropyran-3-yl]-7-[(2-methylpyrimidin-5-yl)methyl]thieno[3,2-b]pyridine-5-carboxamide] | > 10 | 51.5
CO[C@@H]1CCCC[C@H]1NC(=O)c1cc(Cc2cnc(C)nc2)c2sccc2n1 [Compound 130, N-[(1R,2R)-2-methoxycyclohexyl]-7-[(2-methylpyrimidin-5-yl)methyl]thieno[3,2-b]pyridine-5-carboxamide] | > 10 | 20.1
Cc1ncc(Cc2cc(C(=O)N[C@@H]3CCCCC[C@H]3O)nc3ccsc23)cn1 [Compound 131, N-[(1R,2R)-2-hydroxycycloheptyl]-7-[(2-methylpyrimidin-5-yl)methyl]thieno[3,2-b]pyridine-5-carboxamide] | 4.65 | 83.4
Cc1ncc(Cc2cc(C(=O)N[C@H]3CC[C@@H]3O)nc3ccsc23)s1 [Compound 132, N-[(1S,2S)-2-hydroxycyclobutyl]-7-[(2-methylthiazol-5-yl)methyl]thieno[3,2-b]pyridine-5-carboxamide] | > 10 | 54.9
Cc1ncc(Cc2cc(C(=O)N[C@@H]3CCC[C@H]3O)nc3ccsc23)s1 [Compound 133, N-[(1R,2R)-2-hydroxycyclopentyl]-7-[(2-methylthiazol-5-yl)methyl]thieno[3,2-b]pyridine-5-carboxamide] | 3.62 | 77.9
Cc1ncc(Cc2cc(C(=O)NC3CCCCC3)nc3ccsc23)s1 [Compound 134, N-cyclohexyl-7-[(2-methylthiazol-5-yl)methyl]thieno[3,2-b]pyridine-5-carboxamide] | 3.21 | 37.6
Cc1ncc(Cc2cc(C(=O)NC3CCOCC3)nc3ccsc23)s1 [Compound 135, 7-[(2-methylthiazol-5-yl)methyl]-N-tetrahydropyran-4-yl-thieno[3,2-b]pyridine-5-carboxamide] | > 10 | 60.9
Cc1ncc(Cc2cc(C(=O)N[C@@H]3CCCC[C@H]3O)nc3ccsc23)s1 [Compound 136, N-[(1R,2R)-2-hydroxycyclohexyl]-7-[(2-methylthiazol-5-yl)methyl]thieno[3,2-b]pyridine-5-carboxamide] | 0.359 | 81
Cc1ncc(Cc2cc(C(=O)N[C@@H]3CCOC[C@H]3O)nc3ccsc23)s1 [Compound 137, N-[(3S,4R)-3-hydroxytetrahydropyran-4-yl]-7-[(2-methylthiazol-5-yl)methyl]thieno[3,2-b]pyridine-5-carboxamide] | 0.548 | 80.3
Cc1ncc(Cc2cc(C(=O)N[C@@H]3COCC[C@H]3O)nc3ccsc23)s1 [Compound 138, N-[(3R,4R)-4-hydroxytetrahydropyran-3-yl]-7-[(2-methylthiazol-5-yl)methyl]thieno[3,2-b]pyridine-5-carboxamide] | > 10 | 74.3
CO[C@@H]1CCCC[C@H]1NC(=O)c1cc(Cc2cnc(C)s2)c2sccc2n1 [Compound 139, N-[(1R,2R)-2-methoxycyclohexyl]-7-[(2-methylthiazol-5-yl)methyl]thieno[3,2-b]pyridine-5-carboxamide] | > 10 | 51.1
Cc1ncc(Cc2cc(C(=O)N[C@@H]3CCCCC[C@H]3O)nc3ccsc23)s1 [Compound 140, N-[(1R,2R)-2-hydroxycycloheptyl]-7-[(2-methylthiazol-5-yl)methyl]thieno[3,2-b]pyridine-5-carboxamide] | 0.306 | 82.8
